Results: paper PMC8496750, “Identification of the organic anion transporting polypeptides responsible for the hepatic uptake of the major metabolite of epyrifenacil, S‐3100‐CA, in mice” (Pharmacology Research & Perspectives, 2021)

What was measured:
human OATP1B1 = target: T1, human OATP1B1 (Homo sapiens, UniProt Q9Y6L6); assay: Uptake assay for radiolabeled substrates, human OATP1B1 expressing 293FT cells; assay type: in vitro ADME; conditions: for Ratio of uptake amount relative to the uptake into mock cells: 10‐min incubation
T1 construct: expressed in transfected cells; host or cells: 293FT cells
T1 sequence (Q9Y6L6 1-691): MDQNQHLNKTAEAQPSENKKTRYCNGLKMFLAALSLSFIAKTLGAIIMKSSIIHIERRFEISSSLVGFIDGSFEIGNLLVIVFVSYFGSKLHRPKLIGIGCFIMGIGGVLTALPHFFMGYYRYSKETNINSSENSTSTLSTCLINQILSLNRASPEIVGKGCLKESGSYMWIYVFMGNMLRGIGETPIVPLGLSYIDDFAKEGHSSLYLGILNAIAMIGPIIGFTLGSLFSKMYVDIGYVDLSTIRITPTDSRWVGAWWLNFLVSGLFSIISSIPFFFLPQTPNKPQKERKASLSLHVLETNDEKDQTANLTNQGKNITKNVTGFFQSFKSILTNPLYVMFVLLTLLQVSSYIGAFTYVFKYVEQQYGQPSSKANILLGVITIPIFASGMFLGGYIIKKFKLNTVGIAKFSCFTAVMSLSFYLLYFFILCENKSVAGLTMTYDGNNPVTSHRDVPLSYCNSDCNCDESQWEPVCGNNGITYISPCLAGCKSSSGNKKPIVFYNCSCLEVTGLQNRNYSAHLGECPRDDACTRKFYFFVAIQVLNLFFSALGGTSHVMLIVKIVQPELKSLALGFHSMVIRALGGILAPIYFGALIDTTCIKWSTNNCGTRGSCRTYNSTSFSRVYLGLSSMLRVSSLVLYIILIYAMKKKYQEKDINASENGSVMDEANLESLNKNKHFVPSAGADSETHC
Procedure: (§1) 293FT cells were purchased from Thermo Fisher Scientific, Inc.. The cells were grown in Dulbecco's modified Eagle medium (supplemented with 4.5 g/L glucose and 2 mM L‐glutamine) at 37°C, 5% CO2, and 95% humidity. The cells were passaged 3 times per week by harvesting cells using trypsin and plating at a density of 1.0 × 10^4 cells/cm^2 in a 10 cm cell culture plate for maintenance culture. The 293FT cells were detached using trypsin and re‐seeded at a density of 2.5 × 10^4 cells/cm^2 in BioCoat™ Collagen I 6‐well plates (Corning Inc.) for transfection and then treated with 1.2 μg of plasmid vector and 3.2 μl of Lipofectamine™ 2000 Transfection Reagent (Thermo Fisher Scientific, Inc.) according to the manufacturer's instructions. After a 3‐h treatment, the transfection medium was replaced with a fresh cell culture medium and incubated at 37°C with 95% humidity and 5% CO2 until ready for the assay.
(§2) Transport experiments were conducted approximately 24 h post‐transfection. The experiments were initiated by aspirating culture medium and addition of pre‐warmed radiolabeled substrate solution (final 1.0% of acetonitrile or 0.9% of ethanol in phosphate‐buffered saline (PBS[−])) to each well. After a 10‐min incubation, cells were washed twice with 1 ml of ice‐cold PBS(−) and lysed with 700 μl of 1.0 M NaOH for 3 h or more at room temperature. The lysate was transferred to a 1.5‐ml tube, and neutralized with 350 μl of 2.0 M HCl and 350 μl of 2.0% sodium dodecyl sulfate (SDS) solution. From the lysate, 1.0 ml was transferred to a vial containing 10 ml of Emulsifier Scintillator Plus to measure the radioactivity in the LSC. The protein concentration of the cell lysate was also measured using a Pierce™ BCA Protein Assay Kit (Thermo Fisher Scientific, Inc.), which was used to normalize, according to the cell number, the radioactivity in the cell lysate extract. The protein assay was performed in duplicate. Each sample type was assayed in triplicate wells, and each run was performed twice. When the difference in mean uptake between OATP expressing cells and mock cells was more than 2 times, the OATP was judged to be involved in transportation of the substrate. […] Each sample type was assayed in triplicate wells.

human OATP1B3 = target: T2, human OATP1B3 (Homo sapiens, UniProt Q9NPD5); assay: Uptake assay for radiolabeled substrates, human OATP1B3 expressing 293FT cells; assay type: in vitro ADME; conditions: 10‐min incubation
T2 construct: expressed in transfected cells; host or cells: 293FT cells
T2 sequence (Q9NPD5 1-702): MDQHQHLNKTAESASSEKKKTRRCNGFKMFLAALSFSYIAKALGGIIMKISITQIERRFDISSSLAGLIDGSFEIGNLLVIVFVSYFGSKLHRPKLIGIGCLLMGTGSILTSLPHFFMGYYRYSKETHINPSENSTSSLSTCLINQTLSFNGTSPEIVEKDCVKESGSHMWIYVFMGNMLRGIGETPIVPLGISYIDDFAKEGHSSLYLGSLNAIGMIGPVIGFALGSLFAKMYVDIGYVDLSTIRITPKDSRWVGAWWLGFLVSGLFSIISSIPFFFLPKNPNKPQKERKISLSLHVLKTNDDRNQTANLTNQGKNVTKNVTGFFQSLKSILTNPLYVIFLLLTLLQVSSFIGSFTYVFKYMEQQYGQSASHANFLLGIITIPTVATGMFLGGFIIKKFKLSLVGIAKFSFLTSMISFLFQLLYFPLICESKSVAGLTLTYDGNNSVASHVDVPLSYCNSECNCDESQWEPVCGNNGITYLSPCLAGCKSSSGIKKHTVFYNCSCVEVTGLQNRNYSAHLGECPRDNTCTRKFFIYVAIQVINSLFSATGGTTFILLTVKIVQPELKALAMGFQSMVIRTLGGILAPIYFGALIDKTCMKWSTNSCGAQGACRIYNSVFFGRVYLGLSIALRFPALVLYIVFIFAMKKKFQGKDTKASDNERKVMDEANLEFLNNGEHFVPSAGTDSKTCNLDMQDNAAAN
Procedure: as §1, §2

rat Oatp1a4 = target: T3, rat Oatp1a4 (Rattus norvegicus, UniProt O35913); assay: Uptake assay for radiolabeled substrates, rat Oatp1a4 expressing 293FT cells; conditions: 10‐min incubation
T3 sequence (O35913 1-661): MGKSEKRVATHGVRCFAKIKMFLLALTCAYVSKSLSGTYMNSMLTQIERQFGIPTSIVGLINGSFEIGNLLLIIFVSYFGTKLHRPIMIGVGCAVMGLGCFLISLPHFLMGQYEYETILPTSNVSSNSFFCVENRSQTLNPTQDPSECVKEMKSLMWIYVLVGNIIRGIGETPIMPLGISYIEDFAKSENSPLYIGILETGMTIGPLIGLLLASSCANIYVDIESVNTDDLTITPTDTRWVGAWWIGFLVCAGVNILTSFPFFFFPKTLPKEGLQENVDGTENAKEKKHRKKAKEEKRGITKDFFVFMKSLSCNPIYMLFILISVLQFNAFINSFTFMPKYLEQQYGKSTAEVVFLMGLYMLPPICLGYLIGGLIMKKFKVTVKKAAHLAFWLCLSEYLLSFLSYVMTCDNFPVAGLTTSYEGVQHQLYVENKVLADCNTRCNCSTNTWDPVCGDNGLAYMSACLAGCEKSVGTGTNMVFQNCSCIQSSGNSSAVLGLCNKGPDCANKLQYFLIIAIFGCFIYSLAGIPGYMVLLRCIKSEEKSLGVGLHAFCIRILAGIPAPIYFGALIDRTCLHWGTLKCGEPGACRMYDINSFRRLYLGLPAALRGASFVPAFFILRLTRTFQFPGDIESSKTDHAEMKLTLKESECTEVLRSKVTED
Procedure: as §1, §2

Compound	Ratio of uptake amount relative to the uptake into mock cells (human OATP1B1; Run_1, mean of 3 replicates)	Ratio of uptake amount relative to the uptake into mock cells (human OATP1B1; Run_2, mean of 3 replicates)	Ratio of uptake amount relative to the uptake into mock cells (human OATP1B3; Run_1)	Ratio of uptake amount relative to the uptake into mock cells (human OATP1B3; Run_2)	Ratio of uptake amount relative to the uptake into mock cells (rat Oatp1a4; Run_1)	Ratio of uptake amount relative to the uptake into mock cells (rat Oatp1a4; Run_2)	Uptake, times higher than in mock cells (human OATP1B1)
Cn1c(C(F)(F)F)cc(=O)n(-c2cc(Oc3cccnc3OCC(=O)O)c(Cl)cc2F)c1=O [S‐3100‐CA]	5.7	6.2	3.1	5.1	5.0	4.1	–
C[C@]12CC[C@@H]3c4ccc(OS(=O)(=O)O)cc4CC[C@H]3[C@@H]1CCC2=O [E3S, Estrone 3‐sulfate]	69.9	81.9	2.7	3.3	2.2	1.4	> 50 times
C[C@]12CC[C@@H]3c4ccc(O)cc4CC[C@H]3[C@@H]1CC[C@@H]2O[C@@H]1O[C@H](C(=O)O)[C@@H](O)[C@H](O)[C@H]1O [E217βG, Estradiol 17β‐D‐glucuronide]	48.2	55.6	19.3	12.9	6.1	10.4	> 50 times
